Laboratory results from patent publication US6248750A, “9-hydroxyamino tetrahydroacridine and related compounds” (Hoechst Roussel Pharmaceuticals, priority 2000, dated 2001).
Structures can show the parent of a compound that is named as a salt. Where two headings read alike, the source gives them in different places.

Columns and labels:
mice = experiment: Dark Avoidance Assay (reversal of scopolamine induced memory deficit); type: in vivo; conditions: retest after 24 hours
Description: In this assay mice are tested for their ability to remember an unpleasant stimulus for a period of 24 hours. A mouse is placed in a chamber that contains a dark compartment; a srong incandescent light drives it to the dark compartment, where an electric shock is administered through metal plates on the floor. The animal is removed from the testing apparatus and tested again, 24 hours later, for the ability to remember the electric shock.
If scopolamine, an anticholinergic that is known to cause memory impairment, is administered before an animal's initial exposure to the test chamber, the animal re-enters the dark compartment shortly after being placed in the test chamber 24 hours later.

acetylcholinesterase = acetylcholinesterase (Homo sapiens, UniProt P22303); experiment: biochemical
Sequence of acetylcholinesterase (P22303 32-614): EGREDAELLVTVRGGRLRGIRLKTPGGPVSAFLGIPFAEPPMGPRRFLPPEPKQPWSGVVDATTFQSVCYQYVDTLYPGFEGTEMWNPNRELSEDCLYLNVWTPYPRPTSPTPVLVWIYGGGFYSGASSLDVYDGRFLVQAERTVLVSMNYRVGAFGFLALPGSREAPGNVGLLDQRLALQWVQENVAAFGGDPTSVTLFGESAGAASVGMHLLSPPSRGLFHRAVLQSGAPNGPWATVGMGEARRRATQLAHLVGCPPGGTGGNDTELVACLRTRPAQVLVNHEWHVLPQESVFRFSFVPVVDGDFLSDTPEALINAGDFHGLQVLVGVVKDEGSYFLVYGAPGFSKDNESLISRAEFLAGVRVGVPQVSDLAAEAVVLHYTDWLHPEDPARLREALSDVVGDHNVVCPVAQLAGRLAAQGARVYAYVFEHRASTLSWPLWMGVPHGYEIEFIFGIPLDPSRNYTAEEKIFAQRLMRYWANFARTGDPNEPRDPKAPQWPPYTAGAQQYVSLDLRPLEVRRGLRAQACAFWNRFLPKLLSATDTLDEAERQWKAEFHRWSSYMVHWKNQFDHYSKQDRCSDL

SMILES | IC50 (acetylcholinesterase) [µM] | % Animals with Scopolamine Induced memory deficit reversed (mice; dose 1.0 mg/kg s.c.) [%] | also measured
Nc1c2c(nc3ccccc13)CCCC2 [9-Amino-1,2,3,4-tetrahydroacridine, reference compound] | – | – | % Animals with Scopolamine Induced memory deficit reversed (mice; dose 0.31 mg/kg s.c.): 20%
Fc1ccccc1CONc1c2c(nc3ccccc13)CCCC2 [N-(2-Fluorobenzyloxy)-1,2,3,4-tetrahydro-9-acridinamine] | 5.2 | – | –
c1ccc(CONc2c3c(nc4ccccc24)CCCC3)cc1 [N-Benzyloxy-1,2,3,4-tetrahydro-9-acridinamine] | 6.1 | – | –
CONc1c2c(nc3ccccc13)CCCC2.Cl [N-Methoxy-1,2,3,4-tetrahydro-9-acridinamine hydrochloride] | 0.51 | 27 | –
CON(C)c1c2c(nc3ccccc13)CCCC2 [N-Methoxy-N-methyl-1,2,3,4-tetrahydro-9-acridinamnine hydrochloride] | – | 27 | IC50 (acetylcholinesterase; read-out: Cholinesterase Inhibition IC50): 27 µM
CCCONc1c2c(nc3ccccc13)CCCC2 [N-Propyloxy-1,2,3,4-tetrahydro-9-acridinamine, oxalate, hemihydrate] | – | – | IC50 (acetylcholinesterase; read-out: Cholinesterase Inhibition IC50, photometric method of Ellman et al.): 0.83 µM
